The values below come from ChEMBL document CHEMBL1125764, “Muscarinic receptor binding profile of para-substituted caramiphen analogues” (J Med Chem, 1991).

Test [1] concerns the target T1, Muscarinic acetylcholine receptor M2 (Rattus norvegicus, UniProt P10980).
T1 sequence (P10980 whole entry): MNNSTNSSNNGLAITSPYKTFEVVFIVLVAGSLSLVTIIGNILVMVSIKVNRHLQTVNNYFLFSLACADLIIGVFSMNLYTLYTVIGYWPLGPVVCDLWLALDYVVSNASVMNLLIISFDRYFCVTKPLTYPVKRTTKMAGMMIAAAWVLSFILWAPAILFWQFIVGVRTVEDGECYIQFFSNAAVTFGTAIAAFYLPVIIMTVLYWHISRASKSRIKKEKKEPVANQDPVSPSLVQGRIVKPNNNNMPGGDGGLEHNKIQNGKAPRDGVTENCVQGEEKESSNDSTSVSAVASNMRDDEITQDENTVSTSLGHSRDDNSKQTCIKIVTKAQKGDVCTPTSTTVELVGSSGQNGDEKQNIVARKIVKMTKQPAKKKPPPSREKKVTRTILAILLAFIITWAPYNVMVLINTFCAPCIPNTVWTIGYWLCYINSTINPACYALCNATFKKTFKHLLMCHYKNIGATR
In words: Displacement of [3H](-)-quinuclidinyl benzilate(QNB) from muscarinic (M2) receptor in rat heart homogenates. The class given is tissue-based. In general terms: In a radioligand displacement assay an active substance lowers the binding of a labelled ligand.

Test [2] concerns the target T2, Muscarinic acetylcholine receptor M1 (Rattus norvegicus, UniProt P08482).
T2 sequence (P08482 whole entry): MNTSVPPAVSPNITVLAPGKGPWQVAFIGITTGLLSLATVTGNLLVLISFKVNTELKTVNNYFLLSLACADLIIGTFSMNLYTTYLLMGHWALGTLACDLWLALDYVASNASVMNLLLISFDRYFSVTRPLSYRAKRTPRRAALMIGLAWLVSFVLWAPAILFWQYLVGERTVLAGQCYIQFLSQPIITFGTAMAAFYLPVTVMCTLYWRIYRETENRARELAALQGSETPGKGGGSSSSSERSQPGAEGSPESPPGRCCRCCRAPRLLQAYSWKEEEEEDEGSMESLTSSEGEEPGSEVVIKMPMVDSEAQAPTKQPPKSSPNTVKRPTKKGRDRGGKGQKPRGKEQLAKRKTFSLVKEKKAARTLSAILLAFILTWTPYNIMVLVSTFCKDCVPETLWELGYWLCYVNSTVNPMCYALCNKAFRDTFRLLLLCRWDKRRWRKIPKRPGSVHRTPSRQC
Set-up: species or system Cortex.

`CCN(CC)CCOC(=O)C1(c2ccc([N+](=O)[O-])cc2)CCCC1`: the results for the Ki in test [1] and in test [2] were 390 nM and 5.52 nM, respectively.

`CCN(CC)CCOC(=O)C1(c2ccc(C#N)cc2)CCCC1`: the results for the Ki in test [1] and in test [2] were 213 nM and 8.12 nM, respectively.

On to `CCN(CC)CCOC(=O)C1(c2ccc(I)cc2)CCCC1`, for which the Ki in test [1] was 123 nM; in test [2] it was 2.11 nM.

With `CCN(CC)CCOC(=O)C1(c2ccc(-n3cnnn3)cc2)CCCC1`, the inhibition constant (Ki) is 432 nM in test [1] and 14.5 nM in test [2].

For `CCN(CC)CCOC(=O)C1(c2ccc(N)cc2)CCCC1`, the Ki in test [1] was found to be 116 nM; in test [2], 20 nM.

For the molecule `CCN(CC)CCOC(=O)C1(c2ccccc2)CCCC1`, the Ki in test [1] stood at 31.7 nM; in test [2], 1.21 nM.

For the molecule `CCN(CC)CCOC(=O)C1(c2ccc(N3CCCC3)cc2)CCCC1`, the Ki worked out at 551 nM in test [1] and 151 nM in test [2].

In turn, `CCN(CC)CCOC(=O)C1(C2CCCCC2)CCCCC1` [DICYCLOMINE] displayed a Ki in test [1] of 47.3 nM.

One may read the Ki as a dissociation constant, usually derived from enzyme kinetics or from competition with a known ligand. Read a low Ki as higher affinity.
